From ChEMBL document CHEMBL5257126, “Moderately lipophilic 2-(Het)aryl-6-dithioacetals, 2-phenyl-1,4-benzodioxane-6-dithioacetals and 2-phenylbenzofuran-5-dithioacetals: Synthesis and primary evaluation as potential antidiabetic AMPK-activators” (Bioorg Med Chem, 2023)
The source made the active and inactive calls. The calls are words filed in the database; no cut-off is given here.

Columns and labels:
[1] = target: T1, Serine/threonine-protein kinase STK11 (Rattus norvegicus) (UniProt D4AE59); experiment: Activation of LKB1 in rat L6 cells assessed as fold increase in phosphorylation at Ser428 at 5 uM incubated for 24 hrs by Western blot analysis (reference value: 4.6); format: cell-based; details: filed as activator
T1 sequence (whole entry): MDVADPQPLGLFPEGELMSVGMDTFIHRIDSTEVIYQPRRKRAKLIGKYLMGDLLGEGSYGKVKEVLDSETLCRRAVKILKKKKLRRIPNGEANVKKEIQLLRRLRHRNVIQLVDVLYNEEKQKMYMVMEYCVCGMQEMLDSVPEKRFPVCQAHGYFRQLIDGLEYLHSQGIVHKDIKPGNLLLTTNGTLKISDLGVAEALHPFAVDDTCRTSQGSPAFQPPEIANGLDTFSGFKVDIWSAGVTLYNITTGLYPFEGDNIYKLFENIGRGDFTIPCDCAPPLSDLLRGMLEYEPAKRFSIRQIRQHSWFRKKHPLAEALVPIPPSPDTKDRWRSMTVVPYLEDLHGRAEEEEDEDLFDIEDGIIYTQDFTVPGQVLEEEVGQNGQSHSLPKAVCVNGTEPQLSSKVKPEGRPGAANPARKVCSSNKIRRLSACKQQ

[2] = target: T2, AMP-activated protein kinase, AMPK (Rattus norvegicus) (UniProt P54645+Q09137+P80386+P80385+Q9QZH4+Q6V7V4+D4A7E4); experiment: Activation of AMPK phosphorylation at Thr172 residue in rat L6 cells assessed as fold increase at 2.5 uM incubated for 24 hrs by Western blot analysis (reference value: 0.6); format: cell-based; details: filed as activator
L6 [3] = experiment: Inhibition of AKT phosphorylation at Ser473 in rat L6 cells assessed as fold reduction at 1 uM incubated for 24 hrs by Western blot analysis (reference value: 1.1); format: cell-based
[4] = target: T2, AMP-activated protein kinase, AMPK (Rattus norvegicus); experiment: Activation of AMPK phosphorylation at Thr172 residue in rat L6 cells assessed as fold increase at 0.25 uM incubated for 24 hrs by Western blot analysis (reference value: 0.6); format: cell-based; details: filed as activator
[5] = target: T2, AMP-activated protein kinase, AMPK (Rattus norvegicus); experiment: Activation of AMPK phosphorylation at Thr172 residue in rat L6 cells assessed as fold increase at 10 uM incubated for 24 hrs by Western blot analysis (reference value: 0.6); format: cell-based; details: filed as activator
[6] = target: T2, AMP-activated protein kinase, AMPK (Rattus norvegicus); experiment: Activation of AMPK phosphorylation at Thr172 residue in rat L6 cells assessed as fold increase at 0.1 uM incubated for 24 hrs by Western blot analysis (reference value: 0.6); format: cell-based; details: filed as activator
[7] = target: T2, AMP-activated protein kinase, AMPK (Rattus norvegicus); experiment: Activation of AMPK phosphorylation in rat INS-1E cells incubated for 24 hrs; format: cell-based; details: filed as activator, dose 0.5-2 µM
[8] = Oral bioavailability in C57BL/6 mouse at 25 mg/kg; format: ADME, organism-based; details: in vivo
[9] = Tmax in C57BL/6 mouse at 25 mg/kg, po; format: ADME, organism-based; details: in vivo
L6 [10] = experiment: Induction of glucose uptake in rat L6 cells assessed as fold increase by measuring 2-NBDG uptake at 25 uM preincubated in high glucose medium for 48 hrs followed by compound addition and measured after 24 hrs; format: functional
[11] = target: T1, Serine/threonine-protein kinase STK11 (Rattus norvegicus); experiment: Activation of LKB1 in rat L6 cells assessed as fold increase in phosphorylation at Ser428 at 1 uM incubated for 24 hrs by Western blot analysis (reference value: 4.6); format: cell-based; details: filed as activator
L6 [12] = experiment: Inhibition of AKT phosphorylation at Ser473 in rat L6 cells assessed as fold reduction at 0.5 uM incubated for 24 hrs by Western blot analysis (reference value: 1.1); format: cell-based
[13] = target: T1, Serine/threonine-protein kinase STK11 (Rattus norvegicus); experiment: Activation of LKB1 in rat L6 cells assessed as fold increase in phosphorylation at Ser428 at 0.5 uM incubated for 24 hrs by Western blot analysis (reference value: 4.6); format: cell-based; details: filed as activator
[14] = Half life in C57BL/6 mouse at 25 mg/kg, po; format: ADME, organism-based; details: in vivo
[15] = target: T2, AMP-activated protein kinase, AMPK (Rattus norvegicus); experiment: Activation of AMPK phosphorylation in rat L6 cells incubated for 24 hrs by Western blot analysis; format: cell-based; details: filed as activator, dose 0.6-9.31 µM
INS-1E [16] = experiment: Anti-hyperglycemic activity in rat INS-1E cells assessed as glucose stimulated insulin secretion at 1 to 2 uM after 24 hrs; format: functional, cell-based; details: dose 1-2 µM
[17] = target: T2, AMP-activated protein kinase, AMPK (Rattus norvegicus); experiment: Activation of AMPK phosphorylation at Thr172 residue in rat L6 cells assessed as fold increase at 5 uM incubated for 24 hrs by Western blot analysis (reference value: 0.6); format: cell-based; details: filed as activator
L6 [18] = experiment: Inhibition of AKT phosphorylation at Ser473 in rat L6 cells assessed as fold reduction at 10 uM incubated for 24 hrs by Western blot analysis (reference value: 1.1); format: cell-based
[19] = target: T1, Serine/threonine-protein kinase STK11 (Rattus norvegicus); experiment: Activation of LKB1 in rat L6 cells assessed as fold increase in phosphorylation at Ser428 at 0.1 uM incubated for 24 hrs by Western blot analysis (reference value: 4.6); format: cell-based; details: filed as activator
[20] = Clearance in C57BL/6 mouse at 5 mg/kg, iv; format: ADME, organism-based; details: in vivo
[21] = target: T1, Serine/threonine-protein kinase STK11 (Rattus norvegicus); experiment: Activation of LKB1 in rat L6 cells assessed as fold increase in phosphorylation at Ser428 at 10 uM incubated for 24 hrs by Western blot analysis (reference value: 4.6); format: cell-based; details: filed as activator
INS-1E [22] = experiment: Anti-hyperglycemic activity in rat INS-1E cells assessed as total intracellular insulin secretion at 2 uM after 24 hrs; format: functional, cell-based
L6 [23] = experiment: Induction of glucose uptake in rat L6 cells assessed as fold increase by measuring 2-NBDG uptake at 0.25 uM preincubated in high glucose medium for 48 hrs followed by compound addition and measured after 24 hrs; format: functional
[24] = target: T1, Serine/threonine-protein kinase STK11 (Rattus norvegicus); experiment: Activation of LKB1 in rat L6 cells assessed as fold increase in phosphorylation at Ser428 at 0.25 uM incubated for 24 hrs by Western blot analysis (reference value: 4.6); format: cell-based; details: filed as activator
[25] = Half life in C57BL/6 mouse at 5 mg/kg, iv; format: ADME, organism-based; details: in vivo
L6 [26] = experiment: Inhibition of AKT phosphorylation at Ser473 in rat L6 cells assessed as fold reduction at 0.25 uM incubated for 24 hrs by Western blot analysis (reference value: 1.1); format: cell-based
[27] = Cmax in C57BL/6 mouse at 25 mg/kg, po; format: ADME, organism-based; parameters: dose 25 mg/kg, route po; details: in vivo
[28] = target: T2, AMP-activated protein kinase, AMPK (Rattus norvegicus); experiment: Activation of AMPK phosphorylation at Thr172 residue in rat L6 cells assessed as fold increase at 1 uM incubated for 24 hrs by Western blot analysis (reference value: 0.6); format: cell-based; details: filed as activator
[29] = Half life in C57BL/6 mouse blood; format: ADME, tissue-based
[30] = target: T1, Serine/threonine-protein kinase STK11 (Rattus norvegicus); experiment: Activation of LKB1 in rat L6 cells assessed as fold increase in phosphorylation at Ser428 at 2.5 uM incubated for 24 hrs by Western blot analysis (reference value: 4.6); format: cell-based; details: filed as activator
L6 [31] = experiment: Inhibition of AKT phosphorylation at Ser473 in rat L6 cells assessed as fold reduction at 0.1 uM incubated for 24 hrs by Western blot analysis (reference value: 1.1); format: cell-based
L6 [32] = experiment: Inhibition of AKT phosphorylation at Ser473 in rat L6 cells assessed as fold reduction at 5 uM incubated for 24 hrs by Western blot analysis (reference value: 1.1); format: cell-based
[33] = target: T2, AMP-activated protein kinase, AMPK (Rattus norvegicus); experiment: Activation of AMPK phosphorylation at Thr172 residue in rat L6 cells assessed as fold increase at 0.5 uM incubated for 24 hrs by Western blot analysis (reference value: 0.6); format: cell-based; details: filed as activator
L6 [34] = experiment: Inhibition of AKT phosphorylation at Ser473 in rat L6 cells assessed as fold reduction at 2.5 uM incubated for 24 hrs by Western blot analysis (reference value: 1.1); format: cell-based
[35] = Volume of distribution at steady state in C57BL/6 mouse at 5 mg/kg, iv; format: ADME, organism-based; details: in vivo, read-out: Vdss
INS-1E [36] = experiment: Anti-hyperglycemic activity in rat INS-1E cells assessed as basal insulin secretion after 24 hrs; format: functional, cell-based
INS-1E [37] = experiment: Anti-hyperglycemic activity in rat INS-1E cells assessed as insulin secretion […] after 24 hrs; format: functional, cell-based
[38] = target: T2, AMP-activated protein kinase, AMPK (Rattus norvegicus); experiment: Activation of AMPK phosphorylation in rat INS-1E beta-cells at 2 uM incubated for 24 hrs; format: cell-based; details: filed as activator
L6 [39] = experiment: Induction of glucose uptake in rat L6 cells assessed as fold increase by measuring 2-NBDG uptake at 2.5 uM preincubated in high glucose medium for 48 hrs followed by compound addition and measured after 24 hrs; format: functional

c1cc(C2CCc3cc(C4SCCCS4)ccc3O2)ccn1 (centres undefined)
fold change (FC) [1]: 4.78 | fold change (FC) [2]: 5.11 | fold change (FC) (L6 [3]): 0.3 | fold change (FC) [4]: 2.33 | fold change (FC) [5]: 9 | fold change (FC) [6]: 0.5 | Activity [7]: Dose-Dependent Effect | bioavailability [8]: 99% | Tmax [9]: 30 min | fold change (FC) (L6 [10]): 1.1 | fold change (FC) [11]: 5.71 | fold change (FC) (L6 [12]): 0.12 | fold change (FC) [13]: 5.25 | half-life [14]: 66.6 min | Activity [15]: Dose-Dependent Effect | Activity (INS-1E [16]): Active | fold change (FC) [17]: 6.32 | fold change (FC) (L6 [18]): 0.18 | fold change (FC) [19]: 5.56 | clearance [20]: 31.2 mL/min/kg | fold change (FC) [21]: 5 | Activity (INS-1E [22]): inactive | fold change (FC) (L6 [23]): 1.8 | fold change (FC) [24]: 5.33 | half-life [25]: 49.6 min | fold change (FC) (L6 [26]): 0.22 | Cmax [27]: 7630 ng/mL | fold change (FC) [28]: 1.58 | half-life [29]: 66.6 min | fold change (FC) [30]: 4.1 | fold change (FC) (L6 [31]): 1.1 | fold change (FC) (L6 [32]): 0.25 | fold change (FC) [33]: 1.33 | fold change (FC) (L6 [34]): 0.18 | Vd [35]: 1.23 L/kg | Activity (INS-1E [36]): inactive | Activity (INS-1E [37]): Dose-Dependent Effect | Activity [38]: Active | fold change (FC) (L6 [39]): 1.2
